Patent US6784172B2, “Processes for preparation of cyclopenta[b][1,4]diazepino[6,7,1-hi]indoles and derivatives” (Wyeth, priority 2000, dated 2004)

CC(=O)N1CCN2c3c(cccc3C3CCCC32)C1 (racemic) [Example 3, 3-Acetyl-1,2,3,4,8,9,10,10a-octahydro-7bH-cyclopenta[b][1,4]diazepino[6,7,1-hi]indole]
melting point: 111 to 113 °C

c1cc2c3c(c1)c1c(n3CCNC2)CCC1 [Example 1, 1,2,3,4,9,10-Hexahydro-8H-cyclopenta[b][4,1]diazepino[6,7,1-hi]indole]
melting point: 66 to 68 °C
